IC50 data for 22 compounds are collected here from patent US20250136586A1, “Substituted 7-(Pyrimidin-4-yl)Quinolin-4(1H)-One Compounds as Cyclin Dependent Kinase Inhibitors” (BeiGene, Ltd., priority 2022, published 2025).

pIC50: −log10 of the molar value.

One assay deals with CDK6/Cyclin D3 (Homo sapiens (Human), UniProt Q00534). Briefly: TR-FRET kinase inhibition assay, CDK6/Cyclin D3. The assay is classed as biochemical. Conditions: 1 mM ATP, 0.15 μM Rb (Ser780)-biotin substrate, read-out: CDK6D3 IC50. A digest of the protocol: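 Kinase preincubated 60 min at room temperature with 0–10 μM compound; reaction started with 1 mM ATP and 0.15 μM Rb (Ser780)-biotin, run 120 min at room temperature in HEPES pH 7.0, 50 mM MgCl2. pRb detected by TR-FRET (665/620 nm ratio); IC50 from four-parameter logistic fit.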
Sequence of CDK6/Cyclin D3 (Q00534 whole entry): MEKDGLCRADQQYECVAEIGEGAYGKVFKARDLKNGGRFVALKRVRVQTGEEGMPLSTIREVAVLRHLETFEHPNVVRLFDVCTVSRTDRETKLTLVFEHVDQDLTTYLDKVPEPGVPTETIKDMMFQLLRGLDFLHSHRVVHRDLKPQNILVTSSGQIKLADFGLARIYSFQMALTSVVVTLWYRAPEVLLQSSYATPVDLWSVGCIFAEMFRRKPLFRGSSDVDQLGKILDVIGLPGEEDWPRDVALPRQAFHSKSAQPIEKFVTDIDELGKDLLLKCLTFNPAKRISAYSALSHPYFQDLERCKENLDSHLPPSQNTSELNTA
Sequence of CDK6/Cyclin D3 (P30281 whole entry partner): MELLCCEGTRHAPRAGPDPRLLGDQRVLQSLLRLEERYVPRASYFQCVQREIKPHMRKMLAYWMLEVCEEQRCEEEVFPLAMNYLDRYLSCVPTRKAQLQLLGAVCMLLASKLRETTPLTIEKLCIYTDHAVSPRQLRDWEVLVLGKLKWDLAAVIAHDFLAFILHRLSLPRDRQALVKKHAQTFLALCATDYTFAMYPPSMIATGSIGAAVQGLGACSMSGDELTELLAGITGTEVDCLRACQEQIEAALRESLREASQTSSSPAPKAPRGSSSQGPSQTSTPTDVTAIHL

In the next assay the target is CDK4/Cyclin D1 (Homo sapiens (Human), UniProt P11802). Briefly: TR-FRET kinase inhibition assay, CDK4/Cyclin D1. The assay is classed as biochemical. Conditions: 1 mM ATP, 0.15 μM Rb (Ser780)-biotin substrate, read-out: CDK4D1 IC50. A digest of the protocol: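 Kinase was preincubated with compound for 60 min at room temperature, then reacted with ATP and Rb (Ser780)-biotin substrate for 120 min. IC50 came from a four-parameter logistic fit.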
Sequence of CDK4/Cyclin D1 (P11802 whole entry): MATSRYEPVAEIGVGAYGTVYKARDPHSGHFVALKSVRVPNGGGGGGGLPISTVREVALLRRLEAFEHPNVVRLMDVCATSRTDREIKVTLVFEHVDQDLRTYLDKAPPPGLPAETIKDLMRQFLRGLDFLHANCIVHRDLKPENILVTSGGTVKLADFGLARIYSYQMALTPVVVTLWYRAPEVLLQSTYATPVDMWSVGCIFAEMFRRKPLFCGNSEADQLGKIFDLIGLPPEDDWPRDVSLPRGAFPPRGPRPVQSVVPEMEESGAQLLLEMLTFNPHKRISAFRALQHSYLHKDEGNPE
Sequence of CDK4/Cyclin D1 (P24385 whole entry partner): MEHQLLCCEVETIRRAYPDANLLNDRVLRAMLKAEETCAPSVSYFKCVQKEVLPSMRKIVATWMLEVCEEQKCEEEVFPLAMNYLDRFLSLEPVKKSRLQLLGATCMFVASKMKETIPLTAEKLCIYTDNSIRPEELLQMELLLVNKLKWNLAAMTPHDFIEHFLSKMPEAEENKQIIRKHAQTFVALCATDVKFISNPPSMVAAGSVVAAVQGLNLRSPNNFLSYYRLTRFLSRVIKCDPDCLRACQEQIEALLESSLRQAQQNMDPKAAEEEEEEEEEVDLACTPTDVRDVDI

Consider `Cc1c(C2CCN2)n(C(C)C)c2cc(-c3nc(N[C@@H]4CCOC[C@H]4O)ncc3F)ccc2c1=O` (stereo partly drawn) [Example 386, 2-(azetidin-2-yl)-7-(5-fluoro-2-(((3S,4R)-3-hydroxytetrahydro-2H-pyran-4-yl)amino)pyrimidin-4-yl)-1-isopropyl-3-methylquinolin-4(1H)-one], for which the pIC50 was 6.43 at CDK6/Cyclin D3 and 7.92 on CDK4/Cyclin D1.

Turning to `CC(C)n1c(CN2CC[C@H](F)[C@@H](O)C2)cc(=O)c2ccc(-c3nc(N[C@@H]4CCOC[C@H]4O)ncc3F)cc21` [Example 85, 7-(5-fluoro-2-(((3S,4R)-3-hydroxytetrahydro-2H-pyran-4-yl)amino)pyrimidin-4-yl)-2-(((3S,4S)-4-fluoro-3-hydroxypiperidin-1-yl)methyl)-1-isopropylquinolin-4(1H)-one], the pIC50 at CDK6/Cyclin D3 was 6.31; at CDK4/Cyclin D1 it was 7.72.

On to `Cc1c(CN2CCC(C)(O)CC2)n(C(C)C)c2cc(-c3nc(N[C@@H]4CCOC[C@H]4O)ncc3F)ccc2c1=O` [Example 103, 7-(5-fluoro-2-(((3S,4R)-3-hydroxytetrahydro-2H-pyran-4-yl)amino)pyrimidin-4-yl)-2-((4-hydroxy-4-methylpiperidin-1-yl)methyl)-1-isopropyl-3-methylquinolin-4(1H)-one], for which the pIC50 on CDK6/Cyclin D3 is 6.29; at CDK4/Cyclin D1 it was 7.92.

Consider `Cc1cc(=O)c2ccc(-c3nc(N[C@@H]4CCOC[C@H]4O)ncc3F)cc2n1C1CCCC1` [Example 10, 1-cyclopentyl-7-(5-fluoro-2-(((3S,4R)-3-hydroxytetrahydro-2H-pyran-4-yl)amino)pyrimidin-4-yl)-2-methylquinolin-4(1H)-one], for which the values for the pIC50 on CDK6/Cyclin D3 and on CDK4/Cyclin D1 were 5.84 and 7.40, respectively.

Consider `Cc1c(C2CC2)c(=O)c2ccc(-c3nc(N[C@@H]4CCOC[C@H]4O)ncc3F)cc2n1C(C)C` [Example 40, 3-cyclopropyl-7-(5-fluoro-2-(((3S,4R)-3-hydroxytetrahydro-2H-pyran-4-yl)amino)pyrimidin-4-yl)-1-isopropyl-2-methylquinolin-4(1H)-one], for which the pIC50 on CDK6/Cyclin D3 was 6.83; at CDK4/Cyclin D1 it was 8.06.

Consider `Cc1c(CN[C@H]2C[C@H](F)C2)n(C(C)C)c2cc(-c3nc(N[C@@H]4CCOC[C@H]4O)ncc3F)ccc2c1=O` [Example 111, 7-(5-fluoro-2-(((3S,4R)-3-hydroxytetrahydro-2H-pyran-4-yl)amino)pyrimidin-4-yl)-2-((((1r,3R)-3-fluorocyclobutyl)amino)methyl)-1-isopropyl-3-methylquinolin-4(1H)-one], for which the pIC50 on CDK6/Cyclin D3 was 6.45; at CDK4/Cyclin D1, 7.80.

With `CC(C)n1c(CN2[C@H](C)COC[C@@H]2C)cc(=O)c2ccc(-c3nc(N[C@@H]4CCOC[C@H]4O)ncc3F)cc21` [Example 107, 2-(((3R,5S)-3,5-dimethylmorpholino)methyl)-7-(5-fluoro-2-(((3S,4R)-3-hydroxytetrahydro-2H-pyran-4-yl)amino)pyrimidin-4-yl)-1-isopropylquinolin-4(1H)-one], the pIC50 was 6.47 on CDK6/Cyclin D3 and 8.13 at CDK4/Cyclin D1.

With `CC(C)n1c(CN2C3CCCC2CC(O)C3)cc(=O)c2ccc(-c3nc(N[C@@H]4CCOC[C@H]4O)ncc3F)cc21` (stereo partly drawn) [Example 90, 7-(5-fluoro-2-(((3S,4R)-3-hydroxytetrahydro-2H-pyran-4-yl)amino)pyrimidin-4-yl)-2-(((1R,3R,5S)-3-hydroxy-9-azabicyclo[3.3.1]nonan-9-yl)methyl)-1-isopropylquinolin-4(1H)-one], the pIC50 is 6.60 at CDK6/Cyclin D3 and 8.24 on CDK4/Cyclin D1.

With `CC(C)n1c(CN2CCC[C@H](C#N)C2)cc(=O)c2ccc(-c3nc(N[C@@H]4CCOC[C@H]4O)ncc3F)cc21` [Example 89, (S)-1-((7-(5-fluoro-2-(((3S,4R)-3-hydroxytetrahydro-2H-pyran-4-yl)amino)pyrimidin-4-yl)-1-isopropyl-4-oxo-1,4-dihydroquinolin-2-yl)methyl)piperidine-3-carbonitrile], the figures for the pIC50 at CDK6/Cyclin D3 and on CDK4/Cyclin D1 were 6.39 and 8.42, respectively.

Regarding `CC(C)n1c(CN2CCC[C@@H](O)C2)cc(=O)c2ccc(-c3nc(N[C@@H]4CCOC[C@H]4O)ncc3F)cc21` [Example 57, 7-(5-fluoro-2-(((3S,4R)-3-hydroxytetrahydro-2H-pyran-4-yl)amino)pyrimidin-4-yl)-2-(((R)-3-hydroxypiperidin-1-yl)methyl)-1-isopropylquinolin-4(1H)-one], the values for the pIC50 at CDK6/Cyclin D3 and on CDK4/Cyclin D1 were 6.45 and 7.80, respectively.

Consider `CC(=O)NCc1cc(=O)c2ccc(-c3nc(N[C@@H]4CCOC[C@H]4O)ncc3F)cc2n1C(C)C` [Example 50, N-((7-(5-fluoro-2-(((3S,4R)-3-hydroxytetrahydro-2H-pyran-4-yl)amino)pyrimidin-4-yl)-1-isopropyl-4-oxo-1,4-dihydroquinolin-2-yl)methyl)acetamide], for which the pIC50 at CDK6/Cyclin D3 was 6.16; on CDK4/Cyclin D1, 7.80.

As to `CC(C)n1c(CNC2CC2)cc(=O)c2ccc(-c3nc(N[C@@H]4CCOC[C@H]4O)ncc3F)cc21` [Example 48, 2-((cyclopropylamino)methyl)-7-(5-fluoro-2-(((3S,4R)-3-hydroxytetrahydro-2H-pyran-4-yl)amino)pyrimidin-4-yl)-1-isopropylquinolin-4(1H)-one], the pIC50 is 6.68 on CDK6/Cyclin D3 and 8.04 at CDK4/Cyclin D1.

On to `CC(C)n1c(CN[C@H]2C[C@@H](F)C2)cc(=O)c2ccc(-c3nc(N[C@@H]4CCOC[C@H]4O)ncc3F)cc21` [Example 64, 7-(5-fluoro-2-(((3S,4R)-3-hydroxytetrahydro-2H-pyran-4-yl)amino)pyrimidin-4-yl)-2-((((1s,3S)-3-fluorocyclobutyl)amino)methyl)-1-isopropylquinolin-4(1H)-one], for which the figures for the pIC50 at CDK6/Cyclin D3 and on CDK4/Cyclin D1 were 6.15 and 7.59, respectively.

Take `CC(C)n1c(CN2CC[C@@H](F)C2)cc(=O)c2cc(F)c(-c3nc(N[C@@H]4CCOC[C@H]4O)ncc3F)cc21` [Example 114, 6-fluoro-7-(5-fluoro-2-(((3S,4R)-3-hydroxytetrahydro-2H-pyran-4-yl)amino)pyrimidin-4-yl)-2-(((R)-3-fluoropyrrolidin-1-yl)methyl)-1-isopropylquinolin-4(1H)-one]: the results for the pIC50 on CDK6/Cyclin D3 and at CDK4/Cyclin D1 were 6.19 and 7.40, respectively.

In the case of `Cc1c(CNC(C)C)n(C(C)C)c2cc(-c3nc(N[C@@H]4CCOC[C@H]4O)ncc3F)ccc2c1=O` [Example 110, 7-(5-fluoro-2-(((3S,4R)-3-hydroxytetrahydro-2H-pyran-4-yl)amino)pyrimidin-4-yl)-1-isopropyl-2-((isopropylamino)methyl)-3-methylquinolin-4(1H)-one], the pIC50 was 6.25 on CDK6/Cyclin D3 and 8.03 at CDK4/Cyclin D1.

On to `CC(C)n1c(CN[C@@H]2CCCOC2)cc(=O)c2ccc(-c3nc(N[C@@H]4CCOC[C@H]4O)ncc3F)cc21` [Example 59, 7-(5-fluoro-2-(((3S,4R)-3-hydroxytetrahydro-2H-pyran-4-yl)amino)pyrimidin-4-yl)-1-isopropyl-2-((((R)-tetrahydro-2H-pyran-3-yl)amino)methyl)quinolin-4(1H)-one], for which the pIC50 on CDK6/Cyclin D3 is 6.17; on CDK4/Cyclin D1 it was 7.57.

With `CC(C)n1c(CNC2CC(F)(F)C2)cc(=O)c2ccc(-c3nc(N[C@@H]4CCOC[C@H]4O)ncc3F)cc21` [Example 77, 2-(((3,3-difluorocyclobutyl)amino)methyl)-7-(5-fluoro-2-(((3S,4R)-3-hydroxytetrahydro-2H-pyran-4-yl)amino)pyrimidin-4-yl)-1-isopropylquinolin-4(1H)-one], the pIC50 at CDK6/Cyclin D3 was 6.22; on CDK4/Cyclin D1, 7.59.

`Cc1c(C2CCN2C)n(C(C)C)c2cc(-c3nc(N[C@@H]4CCOC[C@H]4O)ncc3F)ccc2c1=O` (stereo partly drawn) [Example 387, 7-(5-fluoro-2-(((3S,4R)-3-hydroxytetrahydro-2H-pyran-4-yl)amino)pyrimidin-4-yl)-1-isopropyl-3-methyl-2-(1-methylazetidin-2-yl)quinolin-4(1H)-one]: the values for the pIC50 at CDK6/Cyclin D3 and at CDK4/Cyclin D1 were 6.63 and 8.29, respectively.

Consider `CC(C)n1c(C(=O)NCC(C)(C)O)cc(=O)c2ccc(-c3nc(N[C@@H]4CCOC[C@H]4O)ncc3Cl)cc21` [Example 22, 7-(5-chloro-2-(((3S,4R)-3-hydroxytetrahydro-2H-pyran-4-yl)amino)pyrimidin-4-yl)-N-(2-hydroxy-2-methylpropyl)-1-isopropyl-4-oxo-1,4-dihydroquinoline-2-carboxamide], for which the pIC50 on CDK6/Cyclin D3 is 6.03; at CDK4/Cyclin D1, 7.31.

As for `Cc1c(CN2[C@@H](C)COC[C@@H]2C)n(C(C)C)c2cc(-c3nc(N[C@@H]4CCOC[C@H]4O)ncc3F)ccc2c1=O` [Example 118, 2-(((3S,5S)-3,5-dimethylmorpholino)methyl)-7-(5-fluoro-2-(((3S,4R)-3-hydroxytetrahydro-2H-pyran-4-yl)amino)pyrimidin-4-yl)-1-isopropyl-3-methylquinolin-4(1H)-one], the results for the pIC50 on CDK6/Cyclin D3 and at CDK4/Cyclin D1 were 7.29 and 8.96, respectively.

For `Cc1c(CN2CC[C@@H](F)C2)n(C(C)C)c2cc(-c3nc(N[C@@H]4CCOC[C@H]4O)ncc3F)ccc2c1=O` [Example 92, 7-(5-fluoro-2-(((3S,4R)-3-hydroxytetrahydro-2H-pyran-4-yl)amino)pyrimidin-4-yl)-2-(((R)-3-fluoropyrrolidin-1-yl)methyl)-1-isopropyl-3-methylquinolin-4(1H)-one], the pIC50 on CDK6/Cyclin D3 was 6.88; at CDK4/Cyclin D1, 8.39.

On to `CNC(=O)c1cc(=O)c2ccc(-c3nc(N[C@@H]4CCOC[C@H]4O)ncc3F)cc2n1C(C)C` [Example 7, 7-(5-fluoro-2-(((3S,4R)-3-hydroxytetrahydro-2H-pyran-4-yl)amino)pyrimidin-4-yl)-1-isopropyl-N-methyl-4-oxo-1,4-dihydroquinoline-2-carboxamide], for which the pIC50 at CDK6/Cyclin D3 is 6.24; on CDK4/Cyclin D1, 7.85.
